Common to all, as to type: functional, organism-based
Test [1] concerns Mus musculus. As to the kind of experiment: Immunomodulatory activity in ip dosed mouse lung assessed as reduction of eosinophils in bronchoalveolar lavage fluid.
The test system of test [2] is Mus musculus. As to the kind of experiment: Antiinflammatory activity against collagen-induced arthritis in po dosed mouse assessed as inhibition of paw edema at 20 mg/kg, po after 20 days. Further details: dose 20 mg/kg.
For test [3], the species on record is Mus musculus. The test is described as follows: Immunomodulatory activity in mouse assessed as reduction in ovalbumin-induced TH2 cytokine secretion by ELISA. Background: ELISA stands for enzyme-linked immunosorbent assay.
Test [4] relates to Mus musculus. The test is described as follows: Immunomodulatory activity in ip dosed mouse lung assessed as reduction in modulation of mucus production at 60 mg/kg. Further details: dose 60 mg/kg.
Test [5] relates to Mus musculus. The test is described as follows: Antiinflammatory activity against collagen-induced arthritis in po dosed mouse assessed as synovial cell hyperplasia after 20 days.
Test [6] relates to Mus musculus. The test is described as follows: Immunomodulatory activity in ip dosed mouse lung assessed as reduction in inhibition of ovalbumin-induced intense cell filtration.
Test [7] concerns Mus musculus. As to the kind of experiment: Immunomodulatory activity in mouse assessed as inhibition of allergic airway inflammation at 60 mg/kg, ip. Further details: dose 60 mg/kg.

Structures are written as SMILES. Calls of active or inactive are those of the source. The calls are words filed in the database; no cut-off is given here.

As for `C[C@@H]1C[C@H]2[C@@H]3CCC4=CC(=O)C=C[C@]4(C)[C@@]3(F)[C@@H](O)C[C@]2(C)[C@@]1(O)C(=O)CO`, the result in the test with Mus musculus [1] was Active.
In the case of `C[C@@]12C[C@H]3OC(=O)[C@@H]1CO[C@]14O[C@]5([C@H]2C1=O)[C@@](O)(CC[C@H]1[C@H]4C[C@H]2O[C@]24CC=CC(=O)[C@]14C)C(=O)O[C@@]35C`, the inhibition result in the test on Mus musculus [2] and with Mus musculus [6] was “Active” each time. Moreover, the result in the test filed under Mus musculus [3], in the test with Mus musculus [4] and with Mus musculus [1] was inactive. For the same molecule, the outcome in the test on Mus musculus [5] was Active. In the test on Mus musculus [7], the inhibition entry is “inactive”.

Values taken from ChEMBL document CHEMBL1212907, “Activity of physalin F in a collagen-induced arthritis model” (J Nat Prod, 2010).
